According to patent US20200392192A1 (priority 2018, published 2020):
Where two headings read alike, the source gives them in different places.

What was measured:
in vitro [1] = settings: human
CEM-SS/HIVRF = format: cell-based, HIV1
in vitro [2] = assay: in vitro
in vitro [3] = settings: human; remark: listed apart in the source
HUH7-ZikaPRVABC59 = assay: microbe, parasite or virus in culture; format: cell-based; settings: Zika virus
HCV Replicon = assay: microbe, parasite or virus in culture; format: cell-based; settings: Hepatitis C virus
protein synthesis = settings: read-out: IC50 protein synthesis inhibition; cited from earlier work

Q: Which CC50 (in vitro [1]) does the source give for `Nc1ccn([C@@H]2CS[C@H](CO)O2)c(=O)n1` [3TC, Lamivudine] here?
A: > 10 µM

Q: With `Cc1cn([C@H]2C[C@H](N=[N+]=[N-])[C@@H](CO)O2)c(=O)[nH]c1=O` [AZT] as the molecule, how does the CC50 (CEM-SS) read?
A: > 1000 nM

Q: What about the EC50 (CEM-SS/HIVRF) of the same molecule?
A: 0.8 nM

Q: What does the source list for `CC(C)OC(=O)[C@H](C)N[P@](=O)(OC[C@H]1O[C@@H](n2ccc(=O)[nH]c2=O)[C@](C)(F)[C@@H]1O)Oc1ccccc1` [Sofosbuvir]?
A: CC50 (in vitro [2]): > 1000 nM; CC50 (in vitro [3]): > 10 µM; EC50 (HUH7-ZikaPRVABC59): 2090 nM; EC50 (HCV Replicon): 50 nM

Q: Which “increased toxicity to E. coli compared to PAPS1” value (E. coli) does the source give for PAP1 here?
A: > 10 fold

Q: And the IC50 (protein synthesis)?
A: 0.29 nM
